Reference: patent US20260191968A1, “PROTAC DEGRADERS OF MLLT1 AND/OR MLLT3” (DARK BLUE THERAPEUTICS LTD, priority 2024, published 2026)

Tests used:
MLLT1 = biological target: T1, MLLT1 (Homo sapiens, UniProt Q03111); assay: MLLT1 degradation assay in MV4-11 cells (JESS chemiluminescent detection), three concentrations, 24 h; type: cell-based; settings: with respect to DMSO control
T1 construct: host or cells: MV4-11
T1 sequence (Q03111 1-559): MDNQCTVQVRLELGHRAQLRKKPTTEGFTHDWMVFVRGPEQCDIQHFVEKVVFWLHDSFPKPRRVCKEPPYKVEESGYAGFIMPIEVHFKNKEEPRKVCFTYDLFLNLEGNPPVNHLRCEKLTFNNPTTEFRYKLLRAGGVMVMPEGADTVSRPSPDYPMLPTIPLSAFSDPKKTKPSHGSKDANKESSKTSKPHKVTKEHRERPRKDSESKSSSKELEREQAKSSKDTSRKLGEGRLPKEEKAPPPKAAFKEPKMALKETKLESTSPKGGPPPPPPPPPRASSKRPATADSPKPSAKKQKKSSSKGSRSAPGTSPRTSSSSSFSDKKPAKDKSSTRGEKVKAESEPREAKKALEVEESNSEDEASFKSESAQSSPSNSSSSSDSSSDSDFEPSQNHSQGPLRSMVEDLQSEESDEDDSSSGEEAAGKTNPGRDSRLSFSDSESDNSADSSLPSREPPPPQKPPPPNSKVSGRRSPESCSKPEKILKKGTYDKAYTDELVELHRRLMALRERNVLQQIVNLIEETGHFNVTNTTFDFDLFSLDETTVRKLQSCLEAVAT
In short: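 MV4-11 cells treated 24 h at 37° C, 5% CO2 with 1000, 100 and 10 nM compound (0.1% DMSO final). MLLT1 quantified by automated capillary chemiluminescent immunodetection; band peak area expressed as % degradation relative to DMSO control.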

MV4-11 cells = assay: MV4-11 cellular proliferative assay, Assay Format B (CTG 2.0, 168 h); type: cell-based; settings: Homo sapiens, 168 h (7 days), CTG 2.0, read-out: IC50 (MV4-11 cellular proliferative assay, Assay format B)
Procedure: MV4-11 cells at a confluency of ~50-80% was used for cell growth assay. 600 cells/well in a 384-well opaque cell culture plate (6007680; Perkin Elmer) were seeded in 40 μL of complete medium (IMDM+10% FBS+1X Penicillin-Streptomycin). Cells were incubated overnight at 37° C., 5% CO2. 10 mM DMSO stocks were prepared, cells were treated with 10 concentrations of test compounds starting from 1 uM or 100 nM, 3-fold dilution in 10 uL (5×concentration) of complete medium. Final DMSO concentration was 0.3%. Culture plates were centrifuged at 40×g, 30s. Cells were incubated with compounds for 168 h (7 days). After 7 days, 20 uL CTG 2.0 reagent (G9242; Promega) was added per well and luminescence reading was taken in Envision Xcite 2105 multimode plate reader. Data was analyzed in GraphPad Prism 10.0 and data was shown as % viability with respect to DMSO control and dose-response curves were generated using four parameter logistic regression. Assay quality was determined by z-factor calculation using positive and negative controls.

SMILES	MLLT1% Degradation @ 0.01 μM (MLLT1)	MLLT1% Degradation @ 0.1 μM (MLLT1)	MLLT1% Degradation @ 1 μM (MLLT1)	IC50 (MV4-11 cells) [nM]
CN1CCC[C@@H]1c1cc2cnc(NC(=O)c3ccc(OCCN4CCN(c5cccc6c5CN(C5CCC(=O)NC5=O)C6=O)CC4)cc3)cc2[nH]1 (stereo partly drawn) [Example 142, 4-(2-(4-(2-(2,6-dioxopiperidin-3-yl)-1-oxoisoindolin-4-yl)piperazin-1-yl)ethoxy)-N-(2-((R)-1-methylpyrrolidin-2-yl)-1H-pyrrolo[3,2-c]pyridin-6-yl)benzamide]	A (Category A: A ≥ 75% degradation)	A (Category A: A ≥ 75% degradation)	A (Category A: A ≥ 75% degradation)	≤ 100
CN1CCC[C@@H]1c1cc2cnc(NC(=O)c3cnc(N4CCN(CC#Cc5cccc6c5CN(C5CCC(=O)NC5=O)C6=O)CC4)nc3)cc2[nH]1 (stereo partly drawn) [Example 89, 2-(4-(3-(2-(2,6-dioxopiperidin-3-yl)-1-oxoisoindolin-4-yl)prop-2-yn-1-yl)piperazin-1-yl)-N-(2-((R)-1-methylpyrrolidin-2-yl)-1H-pyrrolo[3,2-c]pyridin-6-yl)pyrimidine-5-carboxamide]	A (Category A: A ≥ 75% degradation)	A (Category A: A ≥ 75% degradation)	C (Category C: 25% ≤ C < 50% degradation)	≤ 100
CN1CCC[C@@H]1c1cc2cnc(NC(=O)c3ccc(OCCC4CCN(c5ccc6c(c5)C(=O)N(C5CCC(=O)NC5=O)C6=O)CC4)cc3)cc2[nH]1 (stereo partly drawn) [Example 83, 4-(2-(1-(2-(2,6-dioxopiperidin-3-yl)-1,3-dioxoisoindolin-5-yl)piperidin-4-yl)ethoxy)-N-(2-((R)-1-methylpyrrolidin-2-yl)-1H-pyrrolo[3,2-c]pyridin-6-yl)benzamide]	A (Category A: A ≥ 75% degradation)	A (Category A: A ≥ 75% degradation)	B (Category B: 50% ≤ B < 75% degradation)	≤ 100
CN1CCC[C@@H]1c1cc2cnc(NC(=O)c3ccc(CCCC4CCN(c5cccc6c5CN(C5CCC(=O)NC5=O)C6=O)CC4)cc3F)cc2[nH]1 (mixture of isomers) [Example 174, 4-(3-(1-(2-(2,6-dioxopiperidin-3-yl)-1-oxoisoindolin-4-yl)piperidin-4-yl)propyl)-2-fluoro-N-(2-((R)-1-methylpyrrolidin-2-yl)-1H-pyrrolo[3,2-c]pyridin-6-yl)benzamide]	A (Category A: A ≥ 75% degradation)	A (Category A: A ≥ 75% degradation)	A (Category A: A ≥ 75% degradation)	≤ 100
CN1CCC[C@@H]1c1cc2cnc(NC(=O)c3ccc(OC4CCN(CC5CCN(c6ccc7c(c6)CN(C6CCC(=O)NC6=O)C7=O)CC5)CC4)cc3)cc2[nH]1 (stereo partly drawn) [Example 143, 4-((1-((1-(2-(2,6-dioxopiperidin-3-yl)-1-oxoisoindolin-5-yl)piperidin-4-yl)methyl)piperidin-4-yl)oxy)-N-(2-((R)-1-methylpyrrolidin-2-yl)-1H-pyrrolo[3,2-c]pyridin-6-yl)benzamide]	A (Category A: A ≥ 75% degradation)	A (Category A: A ≥ 75% degradation)	A (Category A: A ≥ 75% degradation)	≤ 100
CN1CCC[C@@H]1c1cc2cnc(NC(=O)c3ccc(CCCC#Cc4cccc5c4CN([C@@H]4CCC(=O)NC4=O)C5=O)cc3)cc2[nH]1 (relative stereo) [Example 103, 4-(5-(2-((rel-R)-2,6-dioxopiperidin-3-yl)-1-oxoisoindolin-4-yl)pent-4-yn-1-yl)-N-(2-((R)-1-methylpyrrolidin-2-yl)-1H-pyrrolo[3,2-c]pyridin-6-yl)benzamide]	A (Category A: A ≥ 75% degradation)	A (Category A: A ≥ 75% degradation)	A (Category A: A ≥ 75% degradation)	≤ 100
CN(CCC#Cc1cccc2c1CN(C1CCC(=O)NC1=O)C2=O)c1ccc(C(=O)Nc2cc3[nH]c([C@H]4CCCN4C)cc3cn2)cc1 (stereo partly drawn) [Example 87, 4-((4-(2-(2,6-dioxopiperidin-3-yl)-1-oxoisoindolin-4-yl)but-3-yn-1-yl)(methyl)amino)-N-(2-((R)-1-methylpyrrolidin-2-yl)-1H-pyrrolo[3,2-c]pyridin-6-yl)benzamide]	A (Category A: A ≥ 75% degradation)	A (Category A: A ≥ 75% degradation)	B (Category B: 50% ≤ B < 75% degradation)	≤ 100
CN1CCC[C@@H]1c1cc2cnc(NC(=O)c3ccc(N4CCN(CC5CCN(c6cccc7c6CN([C@H]6CCC(=O)NC6=O)C7=O)CC5)CC4)cc3)cc2[nH]1 (relative stereo) [Example 117, 4-(4-((1-(2-((rel-S)-2,6-dioxopiperidin-3-yl)-1-oxoisoindolin-4-yl)piperidin-4-yl)methyl)piperazin-1-yl)-N-(2-((R)-1-methylpyrrolidin-2-yl)-1H-pyrrolo[3,2-c]pyridin-6-yl)benzamide]	B (Category B: 50% ≤ B < 75% degradation)	A (Category A: A ≥ 75% degradation)	B (Category B: 50% ≤ B < 75% degradation)	≤ 100
CN1CCC[C@@H]1c1cc2cnc(NC(=O)c3ccc(N4CCN(CC#Cc5cccc6c5CN(C5CCC(=O)NC5=O)C6=O)CC4)cc3F)cc2[nH]1 (stereo partly drawn) [Example 155, 4-(4-(3-(2-(2,6-dioxopiperidin-3-yl)-1-oxoisoindolin-4-yl)prop-2-yn-1-yl)piperazin-1-yl)-2-fluoro-N-(2-((R)-1-methylpyrrolidin-2-yl)-1H-pyrrolo[3,2-c]pyridin-6-yl)benzamide]	A (Category A: A ≥ 75% degradation)	A (Category A: A ≥ 75% degradation)	B (Category B: 50% ≤ B < 75% degradation)	≤ 100
CN1CCC[C@@H]1c1cc2cnc(NC(=O)c3ccc(N4CCC(CC#Cc5cccc6c5CN(C5CCC(=O)NC5=O)C6=O)CC4)nc3)cc2[nH]1 (stereo partly drawn) [Example 16, 6-(4-(3-(2-(2,6-dioxopiperidin-3-yl)-1-oxoisoindolin-4-yl)prop-2-yn-1-yl)piperidin-1-yl)-N-(2-((R)-1-methylpyrrolidin-2-yl)-1H-pyrrolo[3,2-c]pyridin-6-yl)nicotinamide]	A (Category A: A ≥ 75% degradation)	A (Category A: A ≥ 75% degradation)	B (Category B: 50% ≤ B < 75% degradation)	≤ 100
